Reference: US20240294572A1, “Antimicrobial Peptides” (priority 2021, published 2024)
Non-standard residues stand in square brackets, D forms with d. Residues, ends and D or L forms follow the SMILES beside them. *: point of attachment. Decanoyl = CCCCCCCCCC(=O)*

Experiments:
[1] = tested on: S. aureus USA300 transposon mutant SAUSA300_1336; assay: Antimicrobial susceptibility of transposon mutant; type: cell-based; parameters: key: No = no MIC changes of C10-KR8d against the WT and the mutant S. aureus strains measured in 50% TSB; conditions: mutant SAUSA300_1336 versus WT
Procedure: (§1) The antimicrobial susceptibility of over 20 MRSA transposon mutants were also tested, based on a transposon library screening, in the presence of LL-37 peptides (Golla, et al. (2020) ACS Infect. Dis., 6:1866-1881). This Nebraska Transposon Mutant Library of S. aureus USA300 consists of 1920 mutants, each with one nonessential gene disabled due to a transposon insertion (Fey, et al. (2013) mBio 4:e00537-12). The correct insertion of the transposon to each Staph mutant had been verified (Golla, et al. (2020) ACS Infect. Dis., 6:1866-1881). Antimicrobial susceptibility to the new peptide C10-KR8d was evaluated in the same manner as MIC assays. Susceptible strains could be inhibited at a peptide concentration lower than the MIC against the wild strain S. aureus JE2.

[2] = tested on: S. aureus USA300 transposon mutant SAUSA300_1967; assay: Antimicrobial susceptibility of transposon mutant; type: cell-based; parameters: key: No = no MIC changes of C10-KR8d against the WT and the mutant S. aureus strains measured in 50% TSB; conditions: mutant SAUSA300_1967 versus WT
Procedure: as §1

[3] = tested on: S. aureus USA300 transposon mutant SAUSA300_1465; assay: Antimicrobial susceptibility of transposon mutant; type: cell-based; parameters: key: No = no MIC changes of C10-KR8d against the WT and the mutant S. aureus strains measured in 50% TSB; conditions: mutant SAUSA300_1465 versus WT
Procedure: as §1

[4] = tested on: S. aureus USA300 transposon mutant SAUSA300_1867; assay: Antimicrobial susceptibility of transposon mutant; type: cell-based; parameters: key: No = no MIC changes of C10-KR8d against the WT and the mutant S. aureus strains measured in 50% TSB; conditions: mutant SAUSA300_1867 versus WT
Procedure: as §1

[5] = tested on: S. aureus USA300 transposon mutant SAUSA300_1097 (pyrF); assay: Antimicrobial susceptibility of transposon mutant; type: cell-based; parameters: key: No = no MIC changes of C10-KR8d against the WT and the mutant S. aureus strains measured in 50% TSB; conditions: mutant SAUSA300_1097 pyrF versus WT
Procedure: as §1

[6] = tested on: S. aureus USA300 transposon mutant SAUSA300_1898; assay: Antimicrobial susceptibility of transposon mutant; type: cell-based; parameters: key: No = no MIC changes of C10-KR8d against the WT and the mutant S. aureus strains measured in 50% TSB; conditions: mutant SAUSA300_1898 versus WT
Procedure: as §1

[7] = tested on: S. aureus USA300 LAC; assay: Bacterial resistance development, multiple passage experiment; type: cell-based; conditions: 14 passages/days at sub-MIC
Procedure: This experiment was performed similar to the MIC determination with a few modifications as described (Mishra, et al. (2019) Proc. Natl. Acad. Sci., 116:13517-13522). In short, an exponential phase S. aureus USA300 culture (i.e., optical density at 600 nm≈0.5) was diluted and partitioned into a 96-well polystyrene microplate with ˜10^5 bacteria per well (90 μL aliquots). After treatment with 10 μL of peptide or nafcillin solutions at various concentrations, microplates were incubated at 37° C. overnight and read on a ChroMate® 4300 Microplate Reader at 630 nm (Awareness Technology, FL). Of the wells with sub-MIC levels of the peptides that retained growth, approximately half of the control wells were again reinoculated in fresh TSB with sub-MIC concertation of peptides or antibiotics to attain exponential phase for MIC determination. Up to 15 serial passages of the bacteria cultures were conducted. The increase in the fold change (MIC on given passage/MIC recorded in first day of passage) was used to determine the degree of drug resistance.

[8] = tested on: HaCaT cells; type: cell-based, human
Procedure: Peptides were assessed for potential cytotoxicity using HaCaT cells (Addexbio Technologies, CA). Briefly, cells were seeded at a density of 1×10^4 per well in a tissue culture 96-well plate. DMEM was supplemented with 10% fetal bovine serum (FBS) and incubated at 37° C. in a 5% CO2 atmosphere for 24 hours. Culture medium was aspirated and replaced with fresh serum free media. Cells were exposed to different concentrations of peptides for 1 hour at 37° C. in a 5% CO2 atmosphere. Post-incubation, the cells were washed and incubated with 100 μL of DMEM media containing 20 μL of MTS reagent for 2 hours at 37° C. Absorbance was read at 492 nm using a ChroMate® microplate reader (Awareness Technology, FL).

[9] = tested on: S. aureus USA300 LAC; assay: Neutropenic murine infection model, systemic efficacy; type: in vivo, C57BL/6 mice; conditions: 5 mg/kg i.p. single dose 2 hours post infection, versus untreated
Procedure: Female C57BL/6 mice (6 weeks old) were purchased from Charles River. After environmental adaptation, mice were induced to be neutropenic by the administration of two doses of cyclophosphamide on Day 1 (150 mg/kg) and Day 4 (100 mg/kg). On Day 5, mice were infected with S. aureus USA300 (˜2×10^6 CFU per mouse) via intraperitoneal injection (i.p.) (Lakshmaia, et al. (2020) Proc. Natl. Acad. Sci., 117:19446-19454). For the treatment groups, mice were i.p. treated 2 hours post infection with peptides at a single dose of 5 mg/kg. This bacterial strain was able to disseminate to different organs 2 hours post infection (Lakshmaia, et al. (2020) Proc. Natl. Acad. Sci., 117:19446-19454). At the end of the experiments, all the animals were sacrificed according to institutional guidelines. Organs, including spleen, liver, lung, and kidney, were harvested, weighed, and placed in 1 mL of sterile PBS and stored on ice. Harvested organs were subsequently homogenized using an Omni Homogenizer. Proper dilutions were made to get countable colonies. The homogenates were plated onto blood agar plates and incubated overnight at 37° C. The CFU of each murine tissue was plotted as an individual point, and error bars represent the deviation within the experimental group. * indicates p<0.05, **p<0.01, ***p<0.001, and NS means no significance (determined by Mann-Whitney test).

CCCCCCCCCC(=O)N[C@H](CCCCN)C(=O)N[C@H](CCCNC(=N)N)C(=O)N[C@@H](C(=O)N[C@H](Cc1c[nH]c2ccccc12)C(=O)N[C@H](CCC(N)=O)C(=O)N[C@H](CCCNC(=N)N)C(=O)N[C@@H](C(=O)N[C@H](CCCCN)C(N)=O)[C@H](C)CC)[C@H](C)CC [Peptide C10-KR8d] (Decanoyl-[dK][dR][dI][dW][dQ][dR][dI][dK]-NH2)
Susceptible? [1]: No
Susceptible? [2]: No
Susceptible? [3]: No
Susceptible? [4]: No
Susceptible? [5]: No
Susceptible? [6]: No
MIC increase in multiple passage experiment [7]: no changes
relative toxicity to HaCaT cells [8]: slightly more toxic than C10-KR8
CFU decrease in mouse lung and liver [9]: 0.5-1 log
CFU decrease in spleen and kidney [9]: not in spleen and kidney
